ChEMBL document CHEMBL3137356, “MMV Box Cryptosporidium parvum screening set”

System: Cryptosporidium parvum
Assay: MMV: Cryptosporidium parvum oocysts (Iowa Strain) were prepared for use by treatment with 10 mM HCl (37 degrees C, 10 min) followed by 2 mM sodium taurocholate in phosphate-buffered saline (PBS) with Ca2+ and Mg2+ (16 degrees C, 10 min) in order to stimulate excystation. The high-throughput screen was carried out by inoculating >90% confluent human ileocecal adenocarcinoma (HCT-8) cells (ATCC) with ~5.5 x 10^3 primed oocysts per well. Experimental compounds or DMSO (vehicle) were added three hours after infection, and cells were incubated for 48 hours.
Format: functional

SMILES	Inhibition
Cl.Clc1cc(Br)ccc1-c1ccc(CNCC2CCNCC2)o1	26.78%
O=C(Nc1ccc(Br)cc1)Nc1cccc(Cl)c1	-51.26%
COc1cc(OC)cc(N2C(=O)N(Cc3ccc(C(C)(C)C)cc3)c3ccccc3S2(=O)=O)c1	-14.44%
O=c1nc(C=Cc2ccc(Cl)cc2)oc2ccccc12	84.37%
c1ccc2cc3c(Nc4ccc(N5CCOCC5)cc4)ccnc3cc2c1	17%
Cn1c(C(=O)c2cccc3ccccc23)nc2ccccc21	-17.7%
COc1ccc(N2CCN(C(CNC(=O)C3CCCCC3)c3ccc4c(c3)OCO4)CC2)cc1 (stereo unspecified)	-25.24%
CN(C)c1ccc(N=Cc2ccc(N3CCOCC3)cc2)cc1	-8.003%
O=C(NC1CCCC1)c1ccc(N2CCC(NCc3cccc(C(F)(F)F)c3)CC2)cc1	-29.41%
COc1ccc(N2CCN(C(CNC(=O)CC(C)(C)C)c3ccc4c(c3)OCO4)CC2)cc1 (stereo unspecified)	-20.28%
Cc1[nH]c(-c2ccc(F)cc2)cc1C(=O)NC1CCN(Cc2ccccc2)CC1	-23.5%
CCOC(=O)C1(Cc2ccccc2)CCN(Cc2cccc(OC)c2O)CC1	-29.57%
Br.Cc1ccc(C)c(-c2csc(Nc3ccc(C)c(C)c3)n2)c1	-25.23%
COc1ccc2c(c1)C1(Nc3ccccc3-c3nc4ccccc4n31)C(=O)N2 (stereo unspecified)	-27.19%
COc1cccc(C=Cc2nc(=O)c3ccccc3o2)c1OC	44.65%
O=C1c2ccc3c4c(ccc(c24)C(=O)N1CCCCO)C(=O)N(CCCCO)C3=O	79.86%
Oc1ccc(C(=C(Cl)Cl)c2ccc(O)cc2)cc1	-24.26%
COc1ccc(CN2CCN(Cc3ccccc3)CC2)c(O)c1	-9.592%
FC(F)(F)c1cccc(CNC2CCN(CCc3ccccc3)CC2)c1	-52.87%
CC(C)OCc1cc(CN2CCN(c3cccc(Cl)c3)CC2)c(O)c2ncccc12	54.97%
CCn1c(SCC(=O)Nc2cc(C(F)(F)F)ccc2Cl)nc2ccccc2c1=O	-35.13%
CCOC(=O)c1cn(CC)c2cc(N(C)CCc3ccc(OC)c(OC)c3)c(F)cc2c1=O	43.56%
COc1cccc(-c2nn(C)c3sc(C(=O)NCCN4CCN(c5ccccc5F)CC4)cc23)c1	60.49%

SMILES	Inhibition
COc1ccc2nc(C)cc(Nc3ccccc3O)c2c1	-4.901%
COc1ccc(C(=O)NC(c2ccc(Cl)cc2Cl)c2cc(Cl)c3cccnc3c2O)cc1 (stereo unspecified)	66.57%
CCN1CCN(c2cc(C)c3cc(NC(=O)c4ccc(OC)c(OC)c4)ccc3n2)CC1	-21.17%
CSc1ccccc1C(=O)Nc1nc(-c2ccccn2)cs1	75.6%
O=C1CC(O)(C(F)(F)C(F)(F)F)Oc2ccccc21 (stereo unspecified)	26.51%
COc1cc(C(=O)Nc2ccc(-c3nc4ccccc4[nH]3)cc2)cc(OC)c1OC	41.18%
COc1ccc(OC)c(C2C3=C(CC(C)(C)CC3=O)N(c3ccc(Cl)c(Cl)c3)C3=C2C(=O)CC(C)(C)C3)c1	2.896%
CCOC(=O)c1cnc2c(C)cccc2c1Nc1ccc(C(C)=O)cc1	-10.99%
CCOC(=O)c1cnc2ccc(Cl)cc2c1NCCCN(C)C	28.81%
COc1ccc(C2=C(c3ccc(OC)cc3)C3(c4ccccc4)C(=O)C2(c2ccccc2)C2C(=O)N(c4ccc(C)cc4)C(=O)C23)cc1 (stereo unspecified)	63.25%
Cn1c(=O)c2cc(C(=O)NCCCN3CCCCCC3)sc2c2ccccc21	-13.68%
COc1ccc(C2c3ccc4ccccc4c3Oc3ncn(CCCN(C)C)c(=N)c32)cc1 (stereo unspecified)	9.024%
O=C(Nc1ccc(C23CC4CC(CC(c5ccccc5)(C4)C2)C3)cc1)c1cccs1	-2.299%
N=c1n(CCN2CCCCC2)c2ccccc2n1CC(=O)c1ccc(Cl)c(Cl)c1	-71.18%
O=C(NCC(c1ccsc1)N1CCCCCC1)c1ccc(C(F)(F)F)cc1 (stereo unspecified)	-22.24%
O=C(Nc1ccc(Cl)cc1C(=O)Nc1ccncc1)c1ccc(Cl)cc1Cl	-3.564%
CCN(CC)CCCNc1ccnc2cc3ccccc3cc12	-47.31%
CCOc1ccccc1CN1CCc2nc3cc(C(C)(C)C)nn3c(O)c2C1	-3.69%
COc1ccc(-c2cn3c(C(=O)Nc4ccccc4Cl)c(-c4ccccc4)c4c3n2CCCC4)cc1	34.31%
Cc1cc(NC(=O)c2cccc(C(F)(F)F)c2)n(-c2nc(-c3ccc4c(c3)OCO4)cs2)n1	-22.88%
CC(C)CNC(=O)c1c(N)n(CCc2ccccc2F)c2nc3ccccc3nc12	-31.92%
CNCCCNc1ccnc2cc(Cl)ccc12	-4.729%
COc1ccc(Nc2cc(C)nc(NCc3ccccc3)n2)cc1	-1.126%
